Read-outs that look alike come from different tables or passages of the source.
Experiments:
[1] = biological target: kinases (468) (Homo sapiens, UniProt O14578); settings: CIT; 1000 nM
[2] = biological target: kinases (468) (Homo sapiens, UniProt O14730); settings: kinase RIOK3 (Entrez RIOK3); compound concentration 1000 nM
[3] = biological target: kinases (468) (Homo sapiens, UniProt O14936); settings: CASK; 1000 nM
[4] = biological target: kinases (468) (Homo sapiens, UniProt O15111); settings: IKK-alpha (CHUK); 1000 nM
[5] = biological target: kinases (468) (Homo sapiens, UniProt O75582); settings: compound concentration 1000 nM
[6] = biological target: kinases (468) (Homo sapiens, UniProt O75747); settings: PIK3C2G; 1000 nM
[7] = biological target: kinases (468) (Homo sapiens, UniProt P00533, DEL752-759); settings: EGFR(S752-I759del); 1000 nM
[8] = biological target: kinases (468) (Homo sapiens, UniProt P00533, G719C); settings: EGFR(G719C); 1000 nM
[9] = biological target: kinases (468) (Homo sapiens, UniProt P07333); settings: 1000 nM
[10] = biological target: kinases (468) (Homo sapiens, UniProt P07949, M918T); settings: kinase RET(M918T) (Entrez RET); compound concentration 1000 nM
[11] = biological target: kinases (468) (Homo sapiens, UniProt P09769); settings: FGR; 1000 nM
[12] = biological target: kinases (468) (Homo sapiens, UniProt P10721, L576P); settings: KIT(L576P); 1000 nM
[13] = biological target: kinases (468) (Homo sapiens, UniProt P15056); settings: BRAF; 1000 nM
[14] = biological target: kinases (468) (Homo sapiens, UniProt P22455); settings: FGFR4; 1000 nM
[15] = biological target: kinases (468) (Homo sapiens, UniProt P31749); settings: AKT1; 1000 nM
[16] = biological target: kinases (468) (Homo sapiens, UniProt P33981); settings: kinase TTK (Entrez TTK); compound concentration 1000 nM
[17] = biological target: kinases (468) (Homo sapiens, UniProt P35590); settings: kinase TIE1 (Entrez TIE1); compound concentration 1000 nM
[18] = biological target: kinases (468) (Homo sapiens, UniProt P35626); settings: GRK3 (ADRBK2); 1000 nM
[19] = biological target: kinases (468) (Homo sapiens, UniProt P42338); settings: PIK3CB; 1000 nM
[20] = biological target: kinases (468) (Homo sapiens, UniProt P49759); settings: CLK1; 1000 nM
[21] = biological target: kinases (468) (Homo sapiens, UniProt P51617); settings: IRAK1; 1000 nM
[22] = biological target: kinases (468) (Homo sapiens, UniProt P51812); settings: compound concentration 1000 nM
[23] = biological target: kinases (468) (Homo sapiens, UniProt P78368); settings: CSNK1G2; 1000 nM
[24] = biological target: kinases (468) (Homo sapiens, UniProt Q07912); settings: kinase TNK2 (Entrez TNK2); compound concentration 1000 nM
[25] = biological target: kinases (468) (Homo sapiens, UniProt Q15835); settings: GRK1; 1000 nM
[26] = biological target: kinases (468) (Homo sapiens, UniProt Q59H18); settings: kinase TNNI3K (Entrez TNNI3K); compound concentration 1000 nM
[27] = biological target: kinases (468) (Homo sapiens, UniProt Q5S007); settings: LRRK2; 1000 nM
[28] = biological target: kinases (468) (Homo sapiens, UniProt Q5S007, G2019S); settings: LRRK2(G2019S); 1000 nM
[29] = biological target: kinases (468) (Homo sapiens, UniProt Q8IWQ3); settings: BRSK2; 1000 nM
[30] = biological target: kinases (468) (Homo sapiens, UniProt Q8NEB9); settings: kinase VPS34 (Entrez PIK3C3); compound concentration 1000 nM
[31] = biological target: kinases (468) (Homo sapiens, UniProt Q9BWU1); settings: CDK11 (CDK19); 1000 nM
[32] = biological target: kinases (468) (Homo sapiens, UniProt Q9H2K8); settings: kinase TAOK3 (Entrez TAOK3); compound concentration 1000 nM
[33] = biological target: kinases (468) (Homo sapiens, UniProt Q9UL54); settings: kinase TAOK2 (Entrez TAOK2); compound concentration 1000 nM

Chain of kinases (468) (Homo sapiens, UniProt P51812) (P51812 whole entry): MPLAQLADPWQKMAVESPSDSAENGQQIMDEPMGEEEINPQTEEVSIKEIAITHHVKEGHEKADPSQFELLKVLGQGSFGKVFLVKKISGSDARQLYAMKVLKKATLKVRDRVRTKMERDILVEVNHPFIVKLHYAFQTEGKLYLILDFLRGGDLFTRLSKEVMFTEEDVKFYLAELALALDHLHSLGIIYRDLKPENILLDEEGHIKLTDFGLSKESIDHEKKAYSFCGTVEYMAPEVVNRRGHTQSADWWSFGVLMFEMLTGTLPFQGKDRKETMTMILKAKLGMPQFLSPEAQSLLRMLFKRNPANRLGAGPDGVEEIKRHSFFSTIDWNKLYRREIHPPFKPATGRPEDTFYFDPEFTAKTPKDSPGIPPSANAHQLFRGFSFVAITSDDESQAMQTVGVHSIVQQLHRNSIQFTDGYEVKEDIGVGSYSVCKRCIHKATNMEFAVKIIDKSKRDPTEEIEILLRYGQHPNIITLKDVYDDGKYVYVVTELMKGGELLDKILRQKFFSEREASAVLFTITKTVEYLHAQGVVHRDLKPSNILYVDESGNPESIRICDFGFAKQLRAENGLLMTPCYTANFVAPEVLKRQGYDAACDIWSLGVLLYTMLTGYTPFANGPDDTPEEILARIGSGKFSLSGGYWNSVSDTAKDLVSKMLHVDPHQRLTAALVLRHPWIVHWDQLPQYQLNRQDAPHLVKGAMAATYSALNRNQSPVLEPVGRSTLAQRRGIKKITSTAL
Chain of kinases (468) (Homo sapiens, UniProt O75582) (O75582 whole entry): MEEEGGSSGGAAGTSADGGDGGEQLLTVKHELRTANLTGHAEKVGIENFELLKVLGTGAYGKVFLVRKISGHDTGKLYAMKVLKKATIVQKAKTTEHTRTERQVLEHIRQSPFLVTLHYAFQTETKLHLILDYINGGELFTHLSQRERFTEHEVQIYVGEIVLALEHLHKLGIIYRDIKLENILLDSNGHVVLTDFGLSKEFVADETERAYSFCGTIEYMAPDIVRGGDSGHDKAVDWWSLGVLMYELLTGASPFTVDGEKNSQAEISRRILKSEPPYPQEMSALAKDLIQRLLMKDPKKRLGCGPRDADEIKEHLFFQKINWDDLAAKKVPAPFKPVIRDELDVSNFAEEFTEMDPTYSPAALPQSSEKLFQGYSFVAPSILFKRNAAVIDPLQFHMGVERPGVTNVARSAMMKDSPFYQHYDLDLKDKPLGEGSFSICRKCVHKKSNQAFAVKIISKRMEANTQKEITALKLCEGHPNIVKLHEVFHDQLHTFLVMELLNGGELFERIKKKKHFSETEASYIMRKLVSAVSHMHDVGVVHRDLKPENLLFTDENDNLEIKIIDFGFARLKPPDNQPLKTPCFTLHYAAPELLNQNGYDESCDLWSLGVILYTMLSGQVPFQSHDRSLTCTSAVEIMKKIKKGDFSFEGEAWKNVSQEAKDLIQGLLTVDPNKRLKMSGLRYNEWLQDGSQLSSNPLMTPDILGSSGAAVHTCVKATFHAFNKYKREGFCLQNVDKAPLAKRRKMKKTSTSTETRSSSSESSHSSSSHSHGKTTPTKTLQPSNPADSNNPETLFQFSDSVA
Chain of kinases (468) (Homo sapiens, UniProt P07333) (P07333 20-972): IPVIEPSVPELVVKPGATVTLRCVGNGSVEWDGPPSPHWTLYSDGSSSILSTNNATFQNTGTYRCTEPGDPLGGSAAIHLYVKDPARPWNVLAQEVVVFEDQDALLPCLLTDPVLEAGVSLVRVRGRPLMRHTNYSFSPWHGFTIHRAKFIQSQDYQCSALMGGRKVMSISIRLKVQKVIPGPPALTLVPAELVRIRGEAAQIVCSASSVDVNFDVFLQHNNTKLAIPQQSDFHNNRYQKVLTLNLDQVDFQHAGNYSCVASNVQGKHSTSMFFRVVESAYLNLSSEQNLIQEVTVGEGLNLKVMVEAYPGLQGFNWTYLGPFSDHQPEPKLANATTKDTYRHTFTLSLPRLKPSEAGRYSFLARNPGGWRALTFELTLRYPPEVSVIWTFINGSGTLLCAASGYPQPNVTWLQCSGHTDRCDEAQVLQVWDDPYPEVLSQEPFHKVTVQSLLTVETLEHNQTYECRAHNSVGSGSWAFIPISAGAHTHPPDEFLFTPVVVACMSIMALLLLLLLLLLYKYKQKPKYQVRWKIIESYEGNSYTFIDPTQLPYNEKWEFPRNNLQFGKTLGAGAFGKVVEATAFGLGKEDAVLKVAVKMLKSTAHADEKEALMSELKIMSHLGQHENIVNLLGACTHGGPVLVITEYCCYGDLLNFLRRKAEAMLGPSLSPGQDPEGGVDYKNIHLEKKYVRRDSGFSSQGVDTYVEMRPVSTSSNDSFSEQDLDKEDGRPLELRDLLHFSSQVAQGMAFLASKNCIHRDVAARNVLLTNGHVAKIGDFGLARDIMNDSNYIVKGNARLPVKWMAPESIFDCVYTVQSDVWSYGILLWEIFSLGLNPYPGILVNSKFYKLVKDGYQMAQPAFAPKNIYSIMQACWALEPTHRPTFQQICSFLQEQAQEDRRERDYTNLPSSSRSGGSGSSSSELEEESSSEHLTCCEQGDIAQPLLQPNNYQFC
Chain of kinases (468) (Homo sapiens, UniProt P00533, DEL752-759) (P00533 25-1210, looked up, stated change not applied): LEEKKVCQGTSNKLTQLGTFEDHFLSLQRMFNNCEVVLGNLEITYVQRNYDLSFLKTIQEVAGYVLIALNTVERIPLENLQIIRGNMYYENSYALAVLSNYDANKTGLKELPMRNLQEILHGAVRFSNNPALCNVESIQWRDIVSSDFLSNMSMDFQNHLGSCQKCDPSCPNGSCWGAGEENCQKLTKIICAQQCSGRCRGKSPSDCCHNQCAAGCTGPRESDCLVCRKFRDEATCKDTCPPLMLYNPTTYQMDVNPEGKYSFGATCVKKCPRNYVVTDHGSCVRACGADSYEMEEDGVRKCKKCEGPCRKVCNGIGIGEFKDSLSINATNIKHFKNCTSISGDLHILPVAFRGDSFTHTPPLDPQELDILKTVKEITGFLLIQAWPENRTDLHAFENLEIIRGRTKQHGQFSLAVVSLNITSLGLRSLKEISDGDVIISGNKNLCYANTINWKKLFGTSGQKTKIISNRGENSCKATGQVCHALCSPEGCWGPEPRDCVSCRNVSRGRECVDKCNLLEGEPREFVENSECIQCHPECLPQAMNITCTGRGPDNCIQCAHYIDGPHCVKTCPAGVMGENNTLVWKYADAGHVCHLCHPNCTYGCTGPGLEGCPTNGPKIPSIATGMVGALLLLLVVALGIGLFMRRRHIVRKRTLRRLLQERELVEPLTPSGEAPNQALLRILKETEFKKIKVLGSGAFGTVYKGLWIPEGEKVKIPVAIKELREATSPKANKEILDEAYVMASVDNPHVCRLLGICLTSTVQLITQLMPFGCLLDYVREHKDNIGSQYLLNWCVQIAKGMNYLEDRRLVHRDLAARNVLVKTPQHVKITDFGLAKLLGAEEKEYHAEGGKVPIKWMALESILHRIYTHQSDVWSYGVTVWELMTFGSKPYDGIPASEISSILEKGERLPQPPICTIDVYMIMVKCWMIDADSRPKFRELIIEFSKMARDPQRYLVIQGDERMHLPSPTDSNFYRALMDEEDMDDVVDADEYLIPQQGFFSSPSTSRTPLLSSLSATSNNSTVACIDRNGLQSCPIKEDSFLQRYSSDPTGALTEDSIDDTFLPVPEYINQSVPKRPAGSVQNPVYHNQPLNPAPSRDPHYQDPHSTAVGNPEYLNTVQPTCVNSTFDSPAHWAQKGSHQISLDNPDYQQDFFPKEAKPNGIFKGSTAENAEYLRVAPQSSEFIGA
Chain of kinases (468) (Homo sapiens, UniProt P07949, M918T) (P07949 29-1114 M918T): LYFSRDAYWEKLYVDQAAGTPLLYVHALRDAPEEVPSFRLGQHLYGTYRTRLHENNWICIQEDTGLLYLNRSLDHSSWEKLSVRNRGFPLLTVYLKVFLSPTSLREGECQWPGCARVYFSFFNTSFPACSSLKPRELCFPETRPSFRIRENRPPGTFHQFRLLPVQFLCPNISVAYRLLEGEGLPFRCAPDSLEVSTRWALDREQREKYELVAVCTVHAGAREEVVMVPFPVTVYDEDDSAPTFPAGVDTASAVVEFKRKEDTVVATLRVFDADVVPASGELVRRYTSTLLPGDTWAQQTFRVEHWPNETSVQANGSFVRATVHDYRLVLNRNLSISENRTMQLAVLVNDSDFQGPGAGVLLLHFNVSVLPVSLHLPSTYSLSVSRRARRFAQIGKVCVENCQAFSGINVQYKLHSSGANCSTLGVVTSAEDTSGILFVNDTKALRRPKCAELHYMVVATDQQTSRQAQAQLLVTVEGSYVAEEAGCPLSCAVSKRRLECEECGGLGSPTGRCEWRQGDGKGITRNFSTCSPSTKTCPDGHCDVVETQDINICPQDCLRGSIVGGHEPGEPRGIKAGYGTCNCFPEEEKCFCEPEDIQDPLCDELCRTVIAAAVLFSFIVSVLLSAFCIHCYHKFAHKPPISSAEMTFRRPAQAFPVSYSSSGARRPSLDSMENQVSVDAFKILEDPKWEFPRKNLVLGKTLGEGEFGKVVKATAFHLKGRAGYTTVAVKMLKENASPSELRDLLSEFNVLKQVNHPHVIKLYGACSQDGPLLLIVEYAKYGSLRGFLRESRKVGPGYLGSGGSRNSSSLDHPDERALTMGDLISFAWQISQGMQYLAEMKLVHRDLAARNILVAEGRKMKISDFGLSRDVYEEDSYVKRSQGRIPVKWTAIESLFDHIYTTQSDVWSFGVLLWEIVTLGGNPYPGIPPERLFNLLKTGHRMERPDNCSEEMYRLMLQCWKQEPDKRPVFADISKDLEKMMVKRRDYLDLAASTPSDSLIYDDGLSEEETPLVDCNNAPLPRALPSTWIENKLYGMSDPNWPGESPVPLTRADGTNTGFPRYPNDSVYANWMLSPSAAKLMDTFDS

Compound: C[C@H]1C[C@@H](O)CN(c2ncc(Cl)c(Nc3ccc4c(c3)c3c(c(=O)n4C)OCC(F)(F)[C@H](C4CC4)N3)n2)C1 [CCT373566_9A]
- Percent Control [1]: 99%
- Percent Control [2]: 85%
- Percent Control [3]: 92%
- Percent Control [4]: 99%
- Percent Control ([5]; kinase RPS6KA5(Kin.Dom.1-N-terminal) (Entrez RPS6KA5)): 93%
- Percent Control ([5]; kinase RPS6KA5(Kin.Dom.2-C-terminal) (Entrez RPS6KA5)): 96%
- Percent Control [6]: 86%
- Percent Control [7]: 86%
- Percent Control [8]: 94%
- Percent Control ([9]; CSF1R-autoinhibited): 77%
- Percent Control ([9]; CSF1R): 100%
- Percent Control [10]: 100%
- Percent Control [11]: 100%
- Percent Control [12]: 100%
- Percent Control [13]: 92%
- Percent Control [14]: 100%
- Percent Control [15]: 100%
- Percent Control [16]: 91%
- Percent Control [17]: 100%
- Percent Control [18]: 100%
- Percent Control [19]: 85%
- Percent Control [20]: 94%
- Percent Control [21]: 77%
- Percent Control ([22]; kinase RSK2(Kin.Dom.1-N-terminal) (Entrez RPS6KA3)): 100%
- Percent Control ([22]; kinase RSK2(Kin.Dom.2-C-terminal) (Entrez RPS6KA3)): 100%
- Percent Control [23]: 99%
- Percent Control [24]: 93%
- Percent Control [25]: 100%
- Percent Control [26]: 100%
- Percent Control [27]: 98%
- Percent Control [28]: 12%
- Percent Control [29]: 100%
- Percent Control [30]: 80%
- Percent Control [31]: 99%
- Percent Control [32]: 91%
- Percent Control [33]: 87%
